The record followed here is patent publication US11512087B2, “BRK inhibitory compound” (priority 2015, dated 2022).

One may read the IC50 as the concentration that inhibits the measured activity by half. One may read the inhibition as the share of the control response that was lost under treatment.

The target of one experiment is Lck (Homo sapiens (Human), UniProt P06239). Nature of the experiment: Lck inhibitory activity (Z'-LYTE Kinase Assay Kit-Tyr 2 Peptide, FRET). Type of experiment: biochemical. As to the method: The Lck activity was determined by using Fluorescence Resonance Energy Transfer (FRET) method.
Lck, sequence (P06239 whole entry, species assumed): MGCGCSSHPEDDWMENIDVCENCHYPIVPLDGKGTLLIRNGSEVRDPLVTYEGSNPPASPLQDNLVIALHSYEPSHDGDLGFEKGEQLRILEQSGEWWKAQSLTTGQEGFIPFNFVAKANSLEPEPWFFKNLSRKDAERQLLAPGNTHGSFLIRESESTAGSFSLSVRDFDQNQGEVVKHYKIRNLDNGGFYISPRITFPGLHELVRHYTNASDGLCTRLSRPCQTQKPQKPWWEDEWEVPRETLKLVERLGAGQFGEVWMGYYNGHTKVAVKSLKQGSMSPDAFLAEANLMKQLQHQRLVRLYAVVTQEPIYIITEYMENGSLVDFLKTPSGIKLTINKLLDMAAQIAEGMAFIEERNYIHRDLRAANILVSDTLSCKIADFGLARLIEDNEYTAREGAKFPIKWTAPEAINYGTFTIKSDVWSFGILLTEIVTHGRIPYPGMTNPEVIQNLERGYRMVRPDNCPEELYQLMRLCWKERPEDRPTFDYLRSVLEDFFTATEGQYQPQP
A dilute solution (5 μL) of the compound of the present invention in dimethylsulfoxide (DMSO; Sigma-Aldrich Co. LLC) was added to a 96-well assay plate. In addition, Peptide/Kinase Buffer composed of DL-dithiothreitol (DTT; 2 mM), Tyr 2 Peptide (2 μM), Kinase Buffer and Lck was added to the assay plate, and the reaction solution was preincubated at 25° C. for 20 minutes. […] After incubation, Coloring Solution A (10 μL) composed of Coloring Reagent B and Coloring Buffer was added, and the reaction solution was incubated at 25° C. for 1 hour. Stop Reagent (10 μL) was added to each well such that the enzymatic reaction stopped. The fluorescent coloring of each well was measured on a fluorescent plate reader by using wavelengths of 445 nm and 520 nm. The ratio of phosphorylation was determined by a ratio of coloring at 445 nm to that at 520 nm according to the attached manual.
The inhibition rate (%) of the compound of the present invention was calculated according to the following Numerical Formula 2. Inhibition rate (%)={1−(AX−AB)/(AC−AB)}×100 [Numerical Formula 2]
AX: Ratio of phosphorylation at addition of the compound of the present invention
AB: Ratio of phosphorylation in blank
AC: Ratio of phosphorylation at addition of only DMSO

The target of a further experiment is Syk kinase (Homo sapiens (Human), UniProt P43405). As to the kind of experiment: Syk inhibitory activity (mobility shift, QuickScout Screening Assist MSA). It counts as biochemical. Conditions: read-out: Syk inhibitory activity (Inhibition rate at 1 μM of compound). How it is done: The compound of the present invention was dissolved in DMSO to prepare a solution with a concentration of 100 times the test concentration of 1 μmol/L. The solution was further diluted 25-fold with Assay Buffer (20 mmol/L HEPES, 0.01% Triton X-100, 2 mmol/L DTT, pH 7.5) to give a test substance solution. With regard to a positive control substance (Staurosporine), a solution of the positive control substance was prepared in a similar manner.
Five microliters of a test substance solution with a concentration of four times prepared by using Assay Buffer, 5 μL of a solution of a substrate (Blk/Lyntide)/ATP/a metal (Mg) with a concentration of four times and 10 μL of a solution of Syk kinase with a concentration of two times were mixed in a well of a 384-well plate made of polypropylene, and the mixture was subjected to a reaction at room temperature for 1 hour (the final concentration of the substrate was 1,000 nmol/L, and the final concentration of ATP was 26 μmol/L). To the mixture, 60 μL of Termination Buffer (QuickScout Screening Assist MSA; Carna Biosciences, Inc.) was added to stop the reaction. The substrate peptide and the phosphorylated peptide in the reaction solution were separated, and were quantified. The kinase reaction was evaluated by a product ratio (P/(P+S)) calculated from a peak height (S) of the substrate peptide and a peak height (P) of the phosphorylated peptide.

Regarding `CC(C)n1cc(-c2ccc(C#N)c3[nH]ncc23)c2c(N)nc(Nc3ccc(S(C)(=O)=O)cc3F)nc21` [Example 13-1, 4-(4-Amino-2-{[2-fluoro-4-(methylsulfonyl)phenyl]amino}-7-isopropyl-7H-pyrrolo[2,3-d]pyrimidin-5-yl)-1H-indazole-7-carbonitrile], the IC50 against Lck is above 10 µM. Besides, the inhibition at 1 µM on Syk kinase turned out to be 0%.
At Lck, `Cc1nn(C)cc1Nc1nc(N)c2c(-c3ccc4[nH]ccc4c3)nn(C(C)C)c2n1` [Example 1, N^6-(1,3-dimethyl-1H-pyrazol-4-yl)-3-(1H-indol-5-yl)-1-isopropyl-1H-pyrazolo[3,4-d]pyrimidine-4,6-diamine] returned an IC50 above 10 µM. In addition, the inhibition at 1 µM on Syk kinase was 0%.
In the same order, the values of `CC(C)n1nc(-c2ccc(F)c3[nH]ncc23)c2c(N)nc(Nc3ccc(S(C)(=O)=O)cc3F)nc21` [Example 4-3, 3-(7-Fluoro-1H-indazol-4-yl)-N^6-[2-fluoro-4-(methylsulfonyl)phenyl]-1-isopropyl-1H-pyrazolo[3,4-d]pyrimidine-4,6-diamine] are 2.5 µM and 0%.
